The source of these data is patent publication US5034390A, “Pyridyl-and pyrmidyl-piperazines useful for the treatment of mental disorders” (Pharmacia AB, priority 1988, dated 1991).

Structures are written as SMILES. Counter-ions that a name gives are not always drawn.

One experiment deals with T1, 5-HT2 receptors (Rattus norvegicus, UniProt P14842).
T1 construct: from tissue
Nature of the experiment: Affinity to 5-HT2 receptors (3H-ketanserine binding assay, Leysen et al.). Conditions: 3H-ketanserine as ligand. Here is the method: The binding assay is carried out essentially as described by Leysen et al. (Mol. Pharmacol. 21, 301-14, 1982) using ^3 H-ketanserine as ligand.

The conditions of experiment [1]: combined 5-HT2/D2 affinity; cited from earlier work.

T1 sequence (P14842 whole entry): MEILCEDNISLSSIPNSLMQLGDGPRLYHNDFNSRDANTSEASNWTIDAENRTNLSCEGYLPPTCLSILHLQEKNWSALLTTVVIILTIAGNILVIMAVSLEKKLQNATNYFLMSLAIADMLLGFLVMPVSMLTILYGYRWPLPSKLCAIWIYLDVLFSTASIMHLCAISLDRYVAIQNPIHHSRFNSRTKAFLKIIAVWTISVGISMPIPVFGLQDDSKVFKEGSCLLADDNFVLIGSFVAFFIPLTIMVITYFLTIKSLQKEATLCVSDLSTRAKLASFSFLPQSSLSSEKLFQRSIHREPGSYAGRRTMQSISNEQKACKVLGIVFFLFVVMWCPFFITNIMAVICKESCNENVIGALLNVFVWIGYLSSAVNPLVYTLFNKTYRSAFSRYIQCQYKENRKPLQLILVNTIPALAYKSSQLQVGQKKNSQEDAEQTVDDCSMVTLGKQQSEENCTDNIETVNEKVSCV

For the compound `Fc1ccc(CCCCN2CCN(c3cccc(Cl)n3)CC2)cc1` [2:9, 4-/4-(p-fluorophenyl)butyl/-1-/6-chloro-2-pyridyl/piperazine hydrochloride], the Ki on 5-HT2 receptors amounted to 7 nM.
At 5-HT2 receptors, `COc1cccc(N2CCN(CCCOc3ccc(F)cc3)CC2)n1` [2:10, 4-/3-(p-fluorophenoxy)propyl/-1-/6-methoxy-2-pyridyl/piperazine fumarate] registered a Ki of 11 nM.
As for `NC(=O)c1cccnc1N1CCN(CCCSc2ccc(F)cc2)CC1` [2:19, 4-/3-(p-fluorothiophenoxy)propyl/-1-/3-carbamyl-2-pyridyl/piperazine dihydrochloride], the affinity at 5-HT2 receptors corresponds to a Ki of 7 nM.
Turning to `CN1CCN(C2=Nc3cc(Cl)ccc3Nc3ccccc32)CC1` [clozapine], the “antipsychotic effect / extrapyramidal side-effects” value in experiment [1] is “antipsychotic effect with a low degree of extrapyramidal side-effects”.
